# US6355799B1, “Substituted benzene compounds, process for their preparation, and herbicidal and defoliant compositions containing them” (ISK Americas Incorporated, priority 1997, dated 2002)
# Tests used:
# Type in all cases: in vivo
# [1] = test system: redroot pigweed (Amaranthus retroflexus, AMARE); assay: Pre-emerge test, greenhouse herbicide activity screening; details: rating scale 0-100, 14 days after application
# How it was run: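 Compounds in acetone were track-sprayed at 187 l/ha, 15–1000 g ai/ha, onto sandy loam pots. Pre-emerge seeds were sown one day before spraying, with surface watering afterwards. Post-emerge plants were at the 2–3 leaf stage and sprayed with 0.25% v/v non-ionic surfactant. Injury was rated 0–100 at 14 days.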
# [2] = test system: barnyardgrass (Echinochloa crus-galli, ECHCG); assay: as above; details: rating scale 0-100, 14 days after application
# How it was run: (§1)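 Applied at 15–1000 g ai/ha from acetone in 187 l/ha spray volume. Post-emergence applications included 0.25% v/v non-ionic surfactant and reached plants sown 8–21 days before. Pre-emergence applications were incorporated by surface watering. Efficacy or crop damage was rated on a 0–100 scale after 14 days.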
# [3] = test system: green foxtail (Setaria viridis, SETVI); assay: as above; details: rating scale 0-100, 14 days after application
# How it was run: as §1
# [4] = test system: ivyleaf morningglory (Ipomoea hederacea, IPOHE); assay: as above; details: rating scale 0-100, 14 days after application
# How it was run: as §1
# [5] = test system: johnsongrass (Sorghum halepense, SORHA); assay: as above; details: rating scale 0-100, 14 days after application
# How it was run: as §1
# [6] = test system: lambsquarters (Chenopodium album, CHEAL); assay: as above; details: rating scale 0-100, 14 days after application
# How it was run: as §1
# [7] = test system: large crabgrass (Digitaria sanguinalis, DIGSA); assay: as above; details: rating scale 0-100, 14 days after application
# How it was run: as §1
# [8] = test system: sicklepod (Cassia obtusifolia, CASOB); assay: as above; details: rating scale 0-100, 14 days after application
# How it was run: as §1
# [9] = test system: velvetleaf (Abutilon theophrasti, ABUTH); assay: as above; details: rating scale 0-100, 14 days after application
# How it was run: as §1
# [10] = test system: field corn (Zea mays L., var. Dekalb 535, CORN); assay: Pre-emerge test, crop safety; details: rating scale 0-100, 14 days after application
# How it was run: as §1
# [11] = test system: upland rice (Oryza sp., var. Tebonnet, RICE); assay: Pre-emerge test, crop safety; details: rating scale 0-100, 14 days after application
# How it was run: as §1
# [12] = test system: barnyardgrass (Echinochloa crus-galli, ECHCG); assay: Post-emerge test, greenhouse herbicide activity screening; details: rating scale 0-100 (0 no damage, 100 complete death), 14 days after application
# How it was run: (§2)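 Fourteen days after spraying, crop and weed injury was graded visually from 0, no effect, to 100, every plant dead. Test substances were dissolved in acetone and applied at 15–1000 g ai/ha with a flat-fan nozzle. Application was either pre-emergence, one day after sowing, or post-emergence at the 2–3 leaf stage.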
# [13] = test system: common ragweed (Ambrosia artemisizfolia L., AMBEL); assay: as above; details: rating scale 0-100 (0 no damage, 100 complete death), 14 days after application
# How it was run: as §2
# [14] = test system: green foxtail (Setaria viridis, SETVI); assay: as above; details: rating scale 0-100 (0 no damage, 100 complete death), 14 days after application
# How it was run: as §2
# [15] = test system: ivyleaf morningglory (Ipomoea hederacea, IPOHE); assay: as above; details: rating scale 0-100 (0 no damage, 100 complete death), 14 days after application
# How it was run: as §2
# [16] = test system: johnsongrass (Sorghum halepense, SORHA); assay: as above; details: rating scale 0-100 (0 no damage, 100 complete death), 14 days after application
# How it was run: as §2
# [17] = test system: lambsquarters (Chenopodium album, CHEAL); assay: as above; details: rating scale 0-100 (0 no damage, 100 complete death), 14 days after application
# How it was run: as §2
# [18] = test system: large crabgrass (Digitaria sanguinalis, DIGSA); assay: as above; details: rating scale 0-100 (0 no damage, 100 complete death), 14 days after application
# How it was run: as §2
# [19] = test system: redroot pigweed (Amaranthus retroflexus, AMARE); assay: as above; details: rating scale 0-100 (0 no damage, 100 complete death), 14 days after application
# How it was run: as §2
# [20] = test system: sicklepod (Cassia obtusifolia, CASOB); assay: as above; details: rating scale 0-100 (0 no damage, 100 complete death), 14 days after application
# How it was run: as §2
# [21] = test system: velvetleaf (Abutilon theophrasti, ABUTH); assay: as above; details: rating scale 0-100 (0 no damage, 100 complete death), 14 days after application
# How it was run: as §2
# [22] = test system: field corn (Zea mays L., var. Dekalb 535, CORN); assay: Post-emerge test, crop safety; details: rating scale 0-100 (0 no damage, 100 complete death), 14 days after application
# How it was run: as §1
# [23] = test system: upland rice (Oryza sp., var. Tebonnet, RICE); assay: Post-emerge test, crop safety; details: rating scale 0-100 (0 no damage, 100 complete death), 14 days after application
# How it was run: as §1
structure (smiles),measurement,setting,value
"COc1c(Cl)cc(F)c(-n2c(=O)cc(C(F)(F)F)n(C)c2=O)c1CC(Cl)C(=O)OCC(C)C (single isomer, unassigned) [14-14]","Pre-emerge herbicidal activity, phytotoxicity rating AMARE",[1]; 63 g ai/ha,100
same,"Pre-emerge herbicidal activity, phytotoxicity rating AMARE",[1]; 250 g ai/ha,100
same,"Pre-emerge herbicidal activity, phytotoxicity rating ECHCG",[2]; 63 g ai/ha,0
same,"Pre-emerge herbicidal activity, phytotoxicity rating ECHCG",[2]; 250 g ai/ha,10
same,"Pre-emerge herbicidal activity, phytotoxicity rating SETVI",[3]; 63 g ai/ha,0
same,"Pre-emerge herbicidal activity, phytotoxicity rating SETVI",[3]; 250 g ai/ha,50
same,"Pre-emerge herbicidal activity, phytotoxicity rating IPOHE",[4]; 63 g ai/ha,0
same,"Pre-emerge herbicidal activity, phytotoxicity rating IPOHE",[4]; 250 g ai/ha,20
same,"Pre-emerge herbicidal activity, phytotoxicity rating SORHA",[5]; 63 g ai/ha,0
same,"Pre-emerge herbicidal activity, phytotoxicity rating SORHA",[5]; 250 g ai/ha,0
same,"Pre-emerge herbicidal activity, phytotoxicity rating CHEAL",[6]; 63 g ai/ha,60
same,"Pre-emerge herbicidal activity, phytotoxicity rating CHEAL",[6]; 250 g ai/ha,100
same,"Pre-emerge herbicidal activity, phytotoxicity rating DIGSA",[7]; 63 g ai/ha,50
same,"Pre-emerge herbicidal activity, phytotoxicity rating DIGSA",[7]; 250 g ai/ha,90
same,"Pre-emerge herbicidal activity, phytotoxicity rating CASOB",[8]; 63 g ai/ha,0
same,"Pre-emerge herbicidal activity, phytotoxicity rating CASOB",[8]; 250 g ai/ha,0
same,"Pre-emerge herbicidal activity, phytotoxicity rating ABUTH",[9]; 63 g ai/ha,0
same,"Pre-emerge herbicidal activity, phytotoxicity rating ABUTH",[9]; 250 g ai/ha,20
same,"Pre-emerge phytotoxicity rating, crop damage CORN",[10]; 63 g ai/ha,0
same,"Pre-emerge phytotoxicity rating, crop damage CORN",[10]; 250 g ai/ha,0
same,"Pre-emerge phytotoxicity rating, crop damage RICE",[11]; 63 g ai/ha,0
same,"Pre-emerge phytotoxicity rating, crop damage RICE",[11]; 250 g ai/ha,20
same,"Post-emerge Herbicidal Activity, phytotoxicity rating ECHCG",[12]; Rate 63 g ai/ha,100
same,"Post-emerge Herbicidal Activity, phytotoxicity rating ECHCG",[12]; Rate 250 g ai/ha,100
same,"Post-emerge Herbicidal Activity, phytotoxicity rating AMBEL",[13]; Rate 63 g ai/ha,70
same,"Post-emerge Herbicidal Activity, phytotoxicity rating AMBEL",[13]; Rate 250 g ai/ha,70
same,"Post-emerge Herbicidal Activity, phytotoxicity rating SETVI",[14]; Rate 63 g ai/ha,50
same,"Post-emerge Herbicidal Activity, phytotoxicity rating SETVI",[14]; Rate 250 g ai/ha,70
same,"Post-emerge Herbicidal Activity, phytotoxicity rating IPOHE",[15]; Rate 63 g ai/ha,30
same,"Post-emerge Herbicidal Activity, phytotoxicity rating IPOHE",[15]; Rate 250 g ai/ha,50
same,"Post-emerge Herbicidal Activity, phytotoxicity rating SORHA",[16]; Rate 63 g ai/ha,0
same,"Post-emerge Herbicidal Activity, phytotoxicity rating SORHA",[16]; Rate 250 g ai/ha,20
same,"Post-emerge Herbicidal Activity, phytotoxicity rating CHEAL",[17]; Rate 63 g ai/ha,50
same,"Post-emerge Herbicidal Activity, phytotoxicity rating CHEAL",[17]; Rate 250 g ai/ha,90
same,"Post-emerge Herbicidal Activity, phytotoxicity rating DIGSA",[18]; Rate 63 g ai/ha,90
same,"Post-emerge Herbicidal Activity, phytotoxicity rating DIGSA",[18]; Rate 250 g ai/ha,100
same,"Post-emerge Herbicidal Activity, phytotoxicity rating AMARE",[19]; Rate 63 g ai/ha,50
same,"Post-emerge Herbicidal Activity, phytotoxicity rating AMARE",[19]; Rate 250 g ai/ha,100
same,"Post-emerge Herbicidal Activity, phytotoxicity rating CASOB",[20]; Rate 63 g ai/ha,0
same,"Post-emerge Herbicidal Activity, phytotoxicity rating CASOB",[20]; Rate 250 g ai/ha,60
same,"Post-emerge Herbicidal Activity, phytotoxicity rating ABUTH",[21]; Rate 63 g ai/ha,50
same,"Post-emerge Herbicidal Activity, phytotoxicity rating ABUTH",[21]; Rate 250 g ai/ha,100
same,Post-emerge phytotoxicity rating CORN (crop damage),[22]; Rate 63 g ai/ha,10
same,Post-emerge phytotoxicity rating CORN (crop damage),[22]; Rate 250 g ai/ha,50
same,Post-emerge phytotoxicity rating RICE (crop damage),[23]; Rate 63 g ai/ha,0
same,Post-emerge phytotoxicity rating RICE (crop damage),[23]; Rate 250 g ai/ha,30
